Measurements from patent publication US10174348B2, “Bacteria engineered for ester production” (priority 2013, dated 2019).
Converted amounts (≈) assume the structure as drawn.

Key:
[1] = system: pyruvate dehydrogenase complex; assay: KDHC activity assay, negative control strain lysate; assay type: biochemical, E. coli; settings: 25 mM 2-keto acid, 30° C.
Protocol: Cells were grown to an OD600 of ˜0.4 in 5 mL LB medium at 37° C., followed by adding 1 mM IPTG. Protein expression was performed at 30° C. for 2 h. Then 1.8 mL of cells were centrifuged at 16,000×g for 10 min, resuspended in 300 μL BugBuster Protein Extraction Reagent (Novagen), and incubated at room temperature for 20 min for cell lysis. Then samples were centrifuged for 20 min, 16,000×g, at 2° C. The soluble fractions were transferred to chilled 1.5 mL tubes, and the insoluble fractions were suspended in 200 μL BugBuster forming a slurry and kept on ice. KDHC activities were measured by following the conversion of 2-keto acids to acyl-CoA with NAD^+ at 340 nm at 30° C. using a Synergy H1 Hybrid Plate Reader (BioTek Instruments, Inc.). […] Protein concentrations were measured using 5× Advanced Protein Assay Reagent (Cytoskeleton Inc.). […]
To confirm the activity of KDHC, cell lysates from each strain were prepared and activity was tested in vitro with pyruvate, 2-ketovalerate, 2-ketoisovalerate, 3-methylketovalerate, or 4-methylketovalerate as substrate. Activity was measured by detecting the reduction of NAD^+ in the presence of CoA. […]

AL2045 = AL2045 with the acetate assimilating pathway (ackA-pta); 10 g/L acetate
Protocol: (§1) Growth of strains in culture medium containing 10 g/L glucose, 10 g/L acetate, or 10 g/L glucose and 10 g/L acetate was compared. Cells were grown at 37° C. on a rotary shaker (250 rpm). Overnight cultures were grown in 3 mL Luria Broth containing appropriate antibiotics. The overnight cultures were inoculated 1% in 5 mL M9 minimal media (containing appropriate antibiotics and 1 mM IPTG) and labeled carbon source in 15-ml screw-cap tubes.
(§2) Next, the growth of JCL260 and AL2045, which contains ΔaceEF with and without the acetate assimilating pathway (ackA-pta), was compared (FIG. 21).

JCL260 = JCL260 without the acetate assimilating pathway; 10 g/L acetate
Protocol: as §1, §2

[2] = cited from earlier work
[3] = Partitioning between hexadecane layer and culture during production; assay type: physicochemical; settings: equal volume of hexadecane over the culture
Protocol: Cells were grown in 20 mL media in 250 mL screw-cap flasks at 37° C. until OD600 0.4, then 1 mM IPTG was added. […] Errors are SD (n=3). […] Then 20 mL of culture was transferred to a 250 mL screw-cap flask. […] The strong agitation at which the flask was shaking caused the hexadecane layer to become an emulsion with micelles of culture, but the majority of the culture layer underneath is discernible. The cultures were allowed to produce at 30° C. on a rotary shaker (250 rpm) for 24-96 h. […] For hexadecane layer assisted isobutyl acetate production, the centrifugation of the hexadecane samples separates the aqueous and hexadecane layer into two clear layers. […] The same volume of ethyl acetate (Sigma-Aldrich) as culture was added into the tubes to extract tetradecyl acetate and isobutyl isobutyrate after production at room temperature. These samples were mixed for 1 min and settled for 30 min on ice. The each sample was centrifuged with 20,000×g for 1 min. Then, 1 mL of supernatant was taken for GC analysis.

E. coli JCL260 = assay: Effect of isobutyl acetate on E. coli growth (toxicity experiments); assay type: cell-based; settings: 3 g L^−1 isobutyl acetate; JCL260, 30° C., M9P with 50 g L^−1 glucose
Protocol: JCL260 was grown at 30° C. in 5 mL M9P media containing 50 g L^−1 glucose in 15 mL screw-cap tubes. Black Arrow indicates the time point when isobutyl acetate: none (light gray), 1 g L^−1 (black), or 3 g L^−1 (dark gray) was added into culture. Error bars are SD (n=3).
This strain produced 4.5-fold more isobutyl acetate (2.7 g L^−1) in the first 24 h compared to JCL260 (FIG. 12b-c). This production represents 60% of the theoretical maximum yield (0.42 g isobutyl acetate/g glucose).

CCCC(=O)C(=O)O [2-ketovalerate]
activity of negative control strain with 2-keto acid as substrate [1]: 30 nmol NADH/min/mg protein

CC(=O)O [Acetate]
effect of acetate on growth (AL2045): enhanced the growth
effect of acetate on growth (JCL260): inhibited the growth

CC(C)COC(=O)C(C)C [Isobutyl isobutyrate, isobutyl isobutyrate]
water solubility [2]: 520 µg/mL (≈ 3.61 mM)

CC(C)CO [isobutanol]
remained in the culture [3]: 86%

CC(=O)OCC(C)C [isobutyl acetate]
E. coli growth in the presence of isobutyl acetate (E. coli JCL260): unable to grow
extracted into the hexadecane [3]: 97%
